Measured values published in patent US20240132521A1, “COMPOUNDS AND METHODS FOR MODULATING HER2” (Iambic Therapeutics, Inc., priority 2022, published 2024).

Experiments:
Type in all cases: cell-based
BaF3_EGFRWT cells = BaF3_EGFRWT cells (Homo sapiens, UniProt P00533); assay: Cell growth inhibition assay (CellTiterGlo), BaF3_EGFRWT; settings: 3-day treatment, CellTiterGlo, read-out: Cell growth inhibition activity, EGFR WT
BaF3_HER2WT cells = BaF3_HER2WT cells (Homo sapiens, UniProt P04626); assay: Cell growth inhibition assay (CellTiterGlo), BaF3_HER2WT; settings: 3-day treatment, CellTiterGlo, read-out: Cell growth inhibition activity, HER2 WT
Sequence of BaF3_HER2WT cells (P04626 whole entry, change not shown): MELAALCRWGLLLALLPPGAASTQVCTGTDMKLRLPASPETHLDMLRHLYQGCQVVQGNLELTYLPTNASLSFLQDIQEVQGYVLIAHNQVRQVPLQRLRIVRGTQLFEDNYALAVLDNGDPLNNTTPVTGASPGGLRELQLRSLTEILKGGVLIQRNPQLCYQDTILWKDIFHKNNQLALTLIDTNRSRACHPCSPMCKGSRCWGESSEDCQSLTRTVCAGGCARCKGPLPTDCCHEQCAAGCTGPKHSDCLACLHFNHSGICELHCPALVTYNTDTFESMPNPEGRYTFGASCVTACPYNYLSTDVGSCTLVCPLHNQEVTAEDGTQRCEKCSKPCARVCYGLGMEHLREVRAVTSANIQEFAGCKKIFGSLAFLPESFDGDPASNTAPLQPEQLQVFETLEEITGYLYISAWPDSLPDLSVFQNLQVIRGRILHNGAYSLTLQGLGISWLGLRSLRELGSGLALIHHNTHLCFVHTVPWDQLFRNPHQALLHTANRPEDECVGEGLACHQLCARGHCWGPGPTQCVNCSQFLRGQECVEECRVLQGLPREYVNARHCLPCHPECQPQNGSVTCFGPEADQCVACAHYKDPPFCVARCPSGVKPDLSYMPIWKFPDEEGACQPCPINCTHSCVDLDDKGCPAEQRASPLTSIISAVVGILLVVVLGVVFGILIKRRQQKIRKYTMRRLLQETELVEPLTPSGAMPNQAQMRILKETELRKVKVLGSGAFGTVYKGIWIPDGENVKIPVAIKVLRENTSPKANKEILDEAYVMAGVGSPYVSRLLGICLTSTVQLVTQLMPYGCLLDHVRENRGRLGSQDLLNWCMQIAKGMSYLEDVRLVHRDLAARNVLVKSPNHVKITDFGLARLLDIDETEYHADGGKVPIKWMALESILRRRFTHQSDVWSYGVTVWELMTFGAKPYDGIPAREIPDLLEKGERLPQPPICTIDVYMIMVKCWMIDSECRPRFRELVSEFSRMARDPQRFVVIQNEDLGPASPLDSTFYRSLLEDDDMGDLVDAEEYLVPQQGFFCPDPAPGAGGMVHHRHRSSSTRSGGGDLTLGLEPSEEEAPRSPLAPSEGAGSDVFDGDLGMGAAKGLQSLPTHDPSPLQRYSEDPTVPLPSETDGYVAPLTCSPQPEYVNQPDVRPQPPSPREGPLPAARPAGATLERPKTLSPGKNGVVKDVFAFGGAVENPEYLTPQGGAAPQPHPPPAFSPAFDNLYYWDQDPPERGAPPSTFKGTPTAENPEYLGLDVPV

BaF3_HER2YVMA cells = BaF3_HER2YVMA cells (Homo sapiens, UniProt P04626, DUP772-775, cells depend on it); assay: Cell growth inhibition assay (CellTiterGlo), BaF3_HER2YVMA; settings: 3-day treatment, CellTiterGlo, read-out: Cell growth inhibition activity, HER2 - YVMA
Sequence of BaF3_HER2YVMA cells (P04626 with tags, fused parts or gaps DUP772-775): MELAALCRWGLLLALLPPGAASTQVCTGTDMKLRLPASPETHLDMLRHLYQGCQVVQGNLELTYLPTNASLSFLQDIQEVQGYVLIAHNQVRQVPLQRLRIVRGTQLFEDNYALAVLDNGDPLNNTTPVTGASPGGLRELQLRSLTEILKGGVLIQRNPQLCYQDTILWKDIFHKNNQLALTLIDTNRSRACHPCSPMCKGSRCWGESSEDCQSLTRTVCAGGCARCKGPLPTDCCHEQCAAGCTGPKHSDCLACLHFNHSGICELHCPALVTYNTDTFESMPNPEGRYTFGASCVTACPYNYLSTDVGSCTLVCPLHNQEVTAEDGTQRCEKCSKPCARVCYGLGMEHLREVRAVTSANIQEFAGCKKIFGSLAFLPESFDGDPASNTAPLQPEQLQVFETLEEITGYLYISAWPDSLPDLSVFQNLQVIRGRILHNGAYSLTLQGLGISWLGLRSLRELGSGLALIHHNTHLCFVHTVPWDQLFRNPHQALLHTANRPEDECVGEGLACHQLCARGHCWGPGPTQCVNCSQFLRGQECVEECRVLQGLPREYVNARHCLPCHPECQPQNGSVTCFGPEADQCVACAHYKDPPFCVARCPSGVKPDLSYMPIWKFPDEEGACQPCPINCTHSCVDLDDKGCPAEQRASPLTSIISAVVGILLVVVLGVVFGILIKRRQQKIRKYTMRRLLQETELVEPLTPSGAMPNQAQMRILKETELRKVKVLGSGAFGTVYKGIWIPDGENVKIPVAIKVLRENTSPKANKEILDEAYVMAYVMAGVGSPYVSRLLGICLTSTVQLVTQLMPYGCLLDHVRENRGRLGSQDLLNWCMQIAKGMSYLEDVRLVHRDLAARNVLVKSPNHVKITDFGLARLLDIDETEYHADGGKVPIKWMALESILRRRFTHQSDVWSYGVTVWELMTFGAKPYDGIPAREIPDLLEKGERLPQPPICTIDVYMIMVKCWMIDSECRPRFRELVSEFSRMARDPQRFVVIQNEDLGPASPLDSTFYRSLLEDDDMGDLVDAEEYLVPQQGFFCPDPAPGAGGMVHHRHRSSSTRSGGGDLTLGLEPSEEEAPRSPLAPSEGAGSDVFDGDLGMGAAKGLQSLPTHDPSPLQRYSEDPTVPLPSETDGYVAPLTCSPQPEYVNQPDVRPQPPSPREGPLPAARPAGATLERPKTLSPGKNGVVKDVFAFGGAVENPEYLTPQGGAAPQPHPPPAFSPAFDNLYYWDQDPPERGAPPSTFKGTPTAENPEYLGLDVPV

Sequence of BaF3_EGFRWT cells (P00533 whole entry, change not shown): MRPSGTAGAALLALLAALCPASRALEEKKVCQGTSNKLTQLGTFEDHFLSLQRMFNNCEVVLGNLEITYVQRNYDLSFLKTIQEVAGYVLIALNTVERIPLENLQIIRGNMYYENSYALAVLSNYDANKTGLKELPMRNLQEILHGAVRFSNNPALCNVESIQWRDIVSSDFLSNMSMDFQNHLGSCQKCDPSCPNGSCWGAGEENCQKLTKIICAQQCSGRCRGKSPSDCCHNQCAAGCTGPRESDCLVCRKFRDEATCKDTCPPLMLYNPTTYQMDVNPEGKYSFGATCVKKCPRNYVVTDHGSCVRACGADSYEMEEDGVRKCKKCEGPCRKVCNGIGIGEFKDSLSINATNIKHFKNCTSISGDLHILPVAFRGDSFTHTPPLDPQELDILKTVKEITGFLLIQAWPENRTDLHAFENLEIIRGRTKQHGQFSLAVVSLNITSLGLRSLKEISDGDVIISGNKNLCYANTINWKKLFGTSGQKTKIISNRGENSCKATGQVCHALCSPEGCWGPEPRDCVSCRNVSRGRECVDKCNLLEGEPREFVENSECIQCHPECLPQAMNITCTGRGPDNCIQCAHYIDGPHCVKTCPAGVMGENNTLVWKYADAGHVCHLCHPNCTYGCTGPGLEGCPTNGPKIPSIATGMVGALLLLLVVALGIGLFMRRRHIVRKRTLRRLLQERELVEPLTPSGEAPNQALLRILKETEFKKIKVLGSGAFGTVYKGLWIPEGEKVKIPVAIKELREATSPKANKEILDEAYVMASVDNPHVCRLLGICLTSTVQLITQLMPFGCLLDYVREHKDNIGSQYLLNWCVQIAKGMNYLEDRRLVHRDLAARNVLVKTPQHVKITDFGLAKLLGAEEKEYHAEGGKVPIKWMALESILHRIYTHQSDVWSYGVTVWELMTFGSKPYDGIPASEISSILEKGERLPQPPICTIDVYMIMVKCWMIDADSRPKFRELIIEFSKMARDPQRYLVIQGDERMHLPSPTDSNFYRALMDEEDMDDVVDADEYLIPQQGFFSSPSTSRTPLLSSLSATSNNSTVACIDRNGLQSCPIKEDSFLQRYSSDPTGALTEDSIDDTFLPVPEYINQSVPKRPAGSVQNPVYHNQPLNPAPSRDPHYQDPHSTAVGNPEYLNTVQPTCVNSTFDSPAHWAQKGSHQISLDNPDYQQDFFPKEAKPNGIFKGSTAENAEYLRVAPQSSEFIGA

Row | Compound | GI50 (BaF3_EGFRWT cells) [nM] | GI50 (BaF3_HER2WT cells) [nM] | GI50 (BaF3_HER2YVMA cells) [nM]
1 | COC1CCN(C/C=C/C(=O)N2CC(c3ccn4ncnc(Nc5ccc(Oc6ccn7ncnc7c6)c(C)c5)c34)C2)C1 (stereo not drawn) [Example 41, (E)-1-(3-(4-((4-([1,2,4]triazolo[1,5-a]pyridin-7-yloxy)-3-methylphenyl)amino)pyrrolo[2,1-f][1,2,4]triazin-5-yl)azetidin-1-yl)-4-(3-methoxypyrrolidin-1-yl)but-2-en-1-one] | 1500 to 5000 | < 200 | < 200
2 | COC1CCN(C/C=C/C(=O)N2CC(c3ccn4ncnc(Nc5ccc(Oc6ccn7ncnc7c6)c(C)c5)c34)C2)CC1 [Example 42, (E)-1-(3-(4-((4-([1,2,4]triazolo[1,5-a]pyridin-7-yloxy)-3-methylphenyl)amino)pyrrolo[2,1-f][1,2,4]triazin-5-yl)azetidin-1-yl)-4-(4-methoxypiperidin-1-yl)but-2-en-1-one] | 1500 to 5000 | < 200 | < 200
3 | Cc1cc(Nc2ncnn3ccc(C4CN(C(=O)/C=C/CC(C)C)C4)c23)ccc1Oc1ccn2ncnc2c1 [Example 43, (E)-1-(3-(4-((4-([1,2,4]triazolo[1,5-a]pyridin-7-yloxy)-3-methylphenyl)amino)pyrrolo[2,1-f][1,2,4]triazin-5-yl)azetidin-1-yl)-5-methylhex-2-en-1-one] | 1500 to 5000 | < 200 | 200 to 500
4 | C=CC(=O)N1CC2CCC(C1)N2c1ccn2ncnc(Nc3ccc(Oc4ccn5ncnc5c4)c(C)c3)c12 [Example 44, 1-(8-(4-((4-([1,2,4]triazolo[1,5-a]pyridin-7-yloxy)-3-methylphenyl)amino)pyrrolo[2,1-f][1,2,4]triazin-5-yl)-3,8-diazabicyclo[3.2.1]octan-3-yl)prop-2-en-1-one] | 1500 to 5000 | < 200 | < 200
5 | Cc1cc(Nc2ncnn3ccc(N4C5CCC4CN(C(=O)/C=C/CN(C)C)C5)c23)ccc1Oc1ccn2ncnc2c1 [Example 45, (E)-1-(8-(4-((4-([1,2,4]triazolo[1,5-a]pyridin-7-yloxy)-3-methylphenyl)amino)pyrrolo[2,1-f][1,2,4]triazin-5-yl)-3,8-diazabicyclo[3.2.1]octan-3-yl)-4-(dimethylamino)but-2-en-1-one] | 1500 to 5000 | < 200 | < 200
6 | Cc1cc(Nc2ncnn3ccc(N4CC5CCC(C4)N5C(=O)/C=C/CN(C)C)c23)ccc1Oc1ccn2ncnc2c1 [Example 47, (E)-1-(3-(4-((4-([1,2,4]triazolo[1,5-a]pyridin-7-yloxy)-3-methylphenyl)amino)pyrrolo[2,1-f][1,2,4]triazin-5-yl)-3,8-diazabicyclo[3.2.1]octan-8-yl)-4-(dimethylamino)but-2-en-1-one] | 1500 to 5000 | < 200 | < 200

Continued, values first:

Row | GI50 (BaF3_EGFRWT cells) [nM] | GI50 (BaF3_HER2WT cells) [nM] | GI50 (BaF3_HER2YVMA cells) [nM] | Compound
7 | 1500 to 5000 | < 200 | < 200 | Cc1cc(Nc2ncnn3ccc(C4CN(C(=O)/C=C/CN5CC(F)C5)C4)c23)ccc1Oc1ccn2ncnc2c1 [Example 38, (E)-1-(3-(4-((4-([1,2,4]triazolo[1,5-a]pyridin-7-yloxy)-3-methylphenyl)amino)pyrrolo[2,1-f][1,2,4]triazin-5-yl)azetidin-1-yl)-4-(3-fluoroazetidin-1-yl)but-2-en-1-one]
8 | 1500 to 5000 | 200 to 500 | 200 to 500 | COC/C=C/C(=O)N1CC(c2ccn3ncnc(Nc4ccc(Oc5ccn6ncnc6c5)c(C)c4)c23)C1 [Example 40, (E)-1-(3-(4-((4-([1,2,4]triazolo[1,5-a]pyridin-7-yloxy)-3-methylphenyl)amino)pyrrolo[2,1-f][1,2,4]triazin-5-yl)azetidin-1-yl)-4-methoxybut-2-en-1-one]
9 | 200 to 500 | < 200 | < 200 | C=CC(=O)N1C2CCC1CN(c1ccn3ncnc(Nc4ccc(Oc5ccn6ncnc6c5)c(C)c4)c13)C2 [Example 46, 1-(3-(4-((4-([1,2,4]triazolo[1,5-a]pyridin-7-yloxy)-3-methylphenyl)amino)pyrrolo[2,1-f][1,2,4]triazin-5-yl)-3,8-diazabicyclo[3.2.1]octan-8-yl)prop-2-en-1-one]
